Key:
[1] = system: platelet aggregation induced by collagen; assay: Antiplatelet activity: inhibition of collagen-induced platelet aggregation in vivo; design: species or system male Wistar rats; details: rats, 10 mg/kg oral daily for 5 days; collagen 2 mg/kg i.v.; per-cent inhibition of the control group
Description: (§1) The products from Examples 1 and 2 had been administered in vivo always as 2%-by-weight suspensions in carboxymethyl cellulose.
(§2) The experimental groups were made up of 6 to 8 samples to allow appropriate statistical evaluation, which was carried out when needed.
The ability of NO-ENA and NO-TIM to inhibit platelet aggregation was evaluated using an in vivo model as described by Pinon (J. Pharmacol. Methods 12,79,1989). 5 groups of male Wistar rats (200 to 250 g) received an oral daily dose of 10 mg/kg of respectively, NO-ENA, enalapril, NO-TIM, timolol or vehicle for 5 days. At an appropriate time on the forth day food (but not water) was withdrawn. 18 to 20 hours later the animals received the last treatment. One hour later the animals were anaesthetized with 10% urethane ([…] intraperitoneally) and the left jugular vein and right carotid artery were incannulated. Collagen (type 6, Sigma) was then administered intravenously at a dose of 2 mg/kg. Three minutes later two blood samples (A and B) were collected from the carotide artery using 2.5-ml plastic syringes in the following manner: sample A, 0.4 ml of blood in 1.6 ml of EDTA/formalin buffer (ETDA tetrasodium salt 24 mM, KH2 PO4 1.3 mM, Na2 PO4 13.4 mM), the samples were then transferred into 5-ml polystyrene test tubes and allowed to settle for 15 minutes at ambient temperature. After this time, the platelet aggregations in sample A were fixed in formalin, while those from sample B were treated with EDTA. Platelet count was then made in each sample using a conventional microscope. The count for sample B was the total number of platelets, while for sample A were considered only non-aggregated platelets. The results were expressed as per-cent aggregation, calculated as follows: {[1-(platelet count in sample A)/(platelet count in sample B)]×100}.

[2] = system: thrombosis induced by collagen plus adrenaline; assay: Antithrombotic activity: collagen plus adrenaline induced thrombosis/death; assay type: in vivo, male Charles River rats of the Swiss strain; details: 10 mg/kg oral daily for 5 days; collagen plus adrenaline 100 μM into caudal vein
Description: as §1, §2
5 groups of male Charles River rats of the Swiss strain, 15 to 20 g, received a daily oral dose of 10 mg/kg of, respectively, NO-ENA, enalapril, NO-TIM, timolol or vehicle for 5 days. At an appropriate time on the fourth day food (but not water) was withdrawn. 18 to 20 hours later the animals received the last treatment. One hour later the animals were injected into the caudal vein with 0.1 ml of a collagen (type 6, Sigma) mixture plus adrenaline hydrochloride (100 μM) diluted in a solution of 0.154 M sodium chloride. As previously explained (Cirino G. et al., Thrombosis Reasearch 79, 73, 1995), injection of this mixture caused death within 3 minutes in 90% of the control animals.

[3] = system: bronchoconstriction induced by capsaicin; assay: Effects on capsaicin-induced bronchoconstriction; assay type: in vivo, female Guinea pigs; details: Guinea pigs, 10 mg/kg intraduodenal; capsaicin 1 μg/kg 45 min later; vehicle = 100
Description: Bronchoconstriction induced by capsaicin in Guinea pigs is an animal model related to the ability of ACE (angiotensin-converting enzyme) inhibitors to cause cough in patients (Subissi et al., J. Cardiovasc. Pharmacol.20/1,139-146, 1992).
Adopted test conditions were as previously described by Del Soldato et al. (J. Pharmacological Methods 5, 279, 1981). Female Guinea pigs weighing 300 to 400 g were anaesthetised by intraperitoneal injection of sodium 5,5-diethylbarbiturate (200 mg/kg) and maintained under artificial respiration at constant positive pressure. The right jugular vein was incannulated for administering […]. By a median incision of the abdomen, the duodenum was removed and through a small incision the tip of a suitable polyethylene cannula was inserted and fixed. The other end of the cannula was connected to a syringe for intraduodenal administration of NO-ENA (10 mg/kg), enalapril (10 mg/kg) or vehicle. […] Before and after injection of capsaicin, changes in the tidal area were measured by a modified Konzett apparatus connected to a suitable polygraphic amplifier (Hewlett Packard).
The results were calculated as the ratio of the responses obtained before and after administration of the test compound, expressed as a % of the response obtained with the vehicle alone, shown in Table 4.

[4] = system: arterial hypertension induced by L-NAME; assay: Antihypertensive activity: L-NAME induced arterial hypertension; assay type: in vivo, male Wistar rats; details: rats, 10 mg/kg intravenous daily for 5 days, 1 h after treatment, vehicle 170 ± 7, * P < 0.05 versus the other two groups
Description: as §1, §2
The ability of NO-ENA to inhibit hypertension was evaluated using an in vivo model as described by Ribeiro et al. (Hypertension 20, 298, 1992). 5 groups of male Wistar rats (235 to 284 g) received a daily intravenous dose of 10 mg/kg of, respectively, NO-ENA, enalapril, NO-TIM, timolol or vehicle for 5 days. Arterial hypertension was induced by administration of N^w -nitro-L-argininemethyl ester (L-NAME) in the drinking water for 6 weeks. L-NAME was dissolved in the drinking water at a concentration of 60 to 70 mg 100 ml^-1 so as to administer a daily amount of about 60 mg kg^-1. One hour after treatment the systemic blood pressure was measured by the tail-cap method (Zats, Lab. Anim. Sci.42, 198, 1990).

intraocular pressure = assay: Ocular hypotensive activity, topical application in rabbits; assay type: in vivo; details: topical application of 100 μg
[5] = Plasma/aqueous humor concentration ratio by HPLC (ocular safety); assay type: in vivo; details: rabbits, topical, versus timolol
Description: Furthermore, for NO-TIM, the ratio between product concentrations in plasma (P) and aqueous humor (AH) versus timolol was determined by an HPLC method.

Row | Structure (SMILES) | ANTIPLATELET ACTIVITY (per-cent inhibition of platelet aggregation versus vehicle control) [1] | ANTITHROMBOTIC ACTIVITY (inhibition percentage compared to the control group) [2] | BRONCHOCONSTRICTIVE RESPONSE (% of the response obtained with the vehicle alone) [3] | MEAN BLOOD PRESSURE [4] | duration of intraocular pressure reduction (intraocular pressure) | reduction of intraocular pressure (intraocular pressure) | reduction of intraocular pressure versus timolol and enalapril (intraocular pressure) | P/AH ratio (plasma/aqueous humor concentration), times lower than that for timolol [5]
1 | CCOC(=O)[C@H](CCc1ccccc1)N[C@@H](C)C(=O)N1CCC[C@H]1C(=O)O [ENALAPRIL, reference compound] | 15% | 11% | 327% | 163 ± 5 mmHg | – | – | – | –
2 | CCOC(=O)C(CCc1ccccc1)NC(C)C(=O)N1CCC[C@H]1C(=O)Oc1cccc(CO[N+](=O)[O-])c1 (stereo partly shown) [NO-ENA] | 65% | 53% | 72% | 115 ± 4 mmHg | more than 6 hours | 6 mmHg | more pronounced and more lasting | –
3 | CC(C)(C)NC[C@H](COc1nsnc1N1CCOCC1)OC(=O)CCCO[N+](=O)[O-].O=C(O)/C=C\C(=O)O [NO-TIM, (R)-(4-nitroxy)butanoate of 1-[(1,1-dimethylethyl)amino]-3-{[4-(4-morpholinyl)-1,2,5-thiadiazol-3-yl]oxy}-2-propyl maleate] | 58% | 44% | – | – | more than 6 hours | 7 mmHg | more pronounced and more lasting | 5.5 times
4 | CC(C)(C)NC[C@H](O)COc1nsnc1N1CCOCC1 [TIMOLOL, reference compound] | 2% | 6% | – | – | – | – | – | –

— patent US6242432A, “Antithrombotic organic nitrates” (Nicox S.A., priority 1996, dated 2001)
